17 compounds from PubChem BioAssay AID328 (DTP/NCI, 2004) can be followed below.

This test has as its system BDF1 mice, P388 leukemia ip, median survival T/C. Nature of the test: NCI In Vivo Anticancer Drug Screen. Data for tumor model P388 Leukemia (intraperitoneal) in B6D2F1 (BDF1) mice. The note with it: endpoint: median survival time, higher = longer survival. In a few lines: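 Compound-treated tumour-bearing mice were compared with vehicle-treated controls. Survival was recorded, and the value is the treated-group measurement divided by the control-group measurement (T/C).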

Where [1] appears, read: dose: 6.25 mg/kg/injection, schedule: Q01DX009 (ip), vehicle: water.
Setting [2] is: dose: 25.0 mg/kg/injection, schedule: Q01DX009 (ip), vehicle: water.
Setting [3] is: dose: 100.0 mg/kg/injection, schedule: Q01DX009 (ip), vehicle: saline with Tween-80.
Where [4] appears, read: dose: 100.0 mg/kg/injection, schedule: Q04DX003 (ip), vehicle: saline with Tween-80.
Setting [5] is: dose: 200.0 mg/kg/injection, schedule: Q01DX009 (ip), vehicle: saline with Tween-80.
Where [6] appears, read: dose: 200.0 mg/kg/injection, schedule: Q04DX003 (ip), vehicle: saline with Tween-80.
[7] abbreviates: dose: 400.0 mg/kg/injection, schedule: Q01DX009 (ip), vehicle: saline with Tween-80.
Where [8] appears, read: dose: 400.0 mg/kg/injection, schedule: Q04DX003 (ip), vehicle: saline with Tween-80.
[9] abbreviates: dose: 25.0 mg/kg/injection, schedule: Q01DX009 (ip), vehicle: saline.
The mark [10] stands for this setting: dose: 50.0 mg/kg/injection, schedule: Q01DX009 (ip), vehicle: saline.
Where [11] appears, read: dose: 50.0 mg/kg/injection, schedule: Q04DX003 (ip), vehicle: saline.
Setting [12] is: dose: 100.0 mg/kg/injection, schedule: Q01DX009 (ip), vehicle: saline.
Where [13] appears, read: dose: 100.0 mg/kg/injection, schedule: Q04DX003 (ip), vehicle: saline.
The mark [14] stands for this setting: dose: 200.0 mg/kg/injection, schedule: Q01DX009 (ip), vehicle: saline.
[15] abbreviates: dose: 200.0 mg/kg/injection, schedule: Q04DX003 (ip), vehicle: saline.
Setting [16] is: dose: 400.0 mg/kg/injection, schedule: Q04DX003 (ip), vehicle: saline.

SMILES strings stand for the structures. Values joined by “and” are separate entries in the source; they are usually repeats but may differ in a detail not shown here. Equal values may be shown once. Toxic doses and inconclusive results are not listed.

For the compound `COC(=O)C(Cc1cnc2nc(N)nc(N)c2n1)C(=O)OC`, the T/C reads like this: (dose: 1.56 mg/kg/injection, schedule: Q01DX009 (ip), vehicle: water) 100 % of control; (dose: 3.13 mg/kg/injection, schedule: Q01DX009 (ip), vehicle: water) 90 % of control; under setting [1], 100 % of control; (dose: 12.5 mg/kg/injection, schedule: Q01DX009 (ip), vehicle: water) 100 % of control; under setting [2], 111 % of control.

As for `CCOC(=O)c1cnc2ccc(OC)cc2c1Cl`, the T/C (dose: 50.0 mg/kg/injection, schedule: Q01DX009 (ip), vehicle: saline with Tween-80) is 95 % of control; the T/C (dose: 50.0 mg/kg/injection, schedule: Q04DX003 (ip), vehicle: saline with Tween-80) was 91 % of control; the T/C under setting [3] is 111 % of control; the T/C under setting [4] is 103 % of control; the T/C under setting [5] was 99 % of control; the T/C under setting [6] was 103 % of control. Moreover, the T/C is, setting by setting: under setting [7], 96 % of control; under setting [8], 95 % of control.

With `CC1CC2CCCCN2O1` (stereo not given), the T/C by setting is: (dose: 100.0 mg/kg/injection, schedule: Q04DX002 (ip), vehicle: saline with Tween-80) 102 % of control; (dose: 200.0 mg/kg/injection, schedule: Q04DX002 (ip), vehicle: saline with Tween-80) 103 % of control; (dose: 400.0 mg/kg/injection, schedule: Q04DX002 (ip), vehicle: saline with Tween-80) 105 % of control.

`CCCCCCCCCCCCCCOc1ccc(C=O)cc1OC`: the T/C by setting is: (dose: 100.0 mg/kg/injection, schedule: Q01DX001 (ip), vehicle: Klucel (hydroxypropylcellulose) (HPC)) 100 % of control; (dose: 200.0 mg/kg/injection, schedule: Q01DX001 (ip), vehicle: Klucel (hydroxypropylcellulose) (HPC)) 100 % of control; (dose: 400.0 mg/kg/injection, schedule: Q01DX001 (ip), vehicle: Klucel (hydroxypropylcellulose) (HPC)) 100 % of control.

Turning to `Nc1ccc(OCCNS(=O)(=O)c2cccc(S(=O)(=O)F)c2)c(Cl)c1`, the T/C is 107 % of control under setting [9]; 104 % of control under setting [10]; 103 % of control under setting [11]; 114 % of control under setting [12]; 103 % of control under setting [13]; 105 % of control under setting [14]. In addition, the T/C is 103 % of control under setting [15] and 100 % of control under setting [16].

Regarding `CC1CN1CCS(=O)(=O)CCN1CC1C` (stereo not given), the T/C (dose: 22.0 mg/kg/injection, schedule: Q04DX003 (ip), vehicle: saline) was 105 % of control; the T/C (dose: 33.0 mg/kg/injection, schedule: Q04DX003 (ip), vehicle: saline) was 100 % of control; the T/C under setting [11] is 111 % of control; the T/C (dose: 75.0 mg/kg/injection, schedule: Q04DX003 (ip), vehicle: saline) is 122 % of control; the T/C (dose: 150.0 mg/kg/injection, schedule: Q01DX009 (ip), vehicle: other) was 163 % of control; the T/C (dose: 225.0 mg/kg/injection, schedule: Q01DX009 (ip), vehicle: other) was 209 % of control.

`CCOc1c(Br)cc(Br)cc1C=O`: the T/C was 104 % of control under setting [3]; 109 % of control under setting [4]; 113 % of control under setting [5]; 109 % of control under setting [6]; 100 % of control under setting [7]; 95 % of control under setting [8].

Regarding `C/C(=N\NC(=S)N1CCC(O)CC1)c1ccccn1`, the T/C (dose: 6.25 mg/kg/injection, schedule: Q04DX003 (ip), vehicle: saline with Tween-80) was 104 % of control; the T/C (dose: 12.5 mg/kg/injection, schedule: Q04DX003 (ip), vehicle: saline with Tween-80) was 108 % of control; the T/C (dose: 25.0 mg/kg/injection, schedule: Q04DX003 (ip), vehicle: saline with Tween-80) is 113 % of control.

Regarding `COc1ccc(/C=C/C(=O)c2ccc3c(c2)OCO3)cc1O`, the T/C is, setting by setting: (dose: 3.12 mg/kg/injection, schedule: Q01DX009 (ip), vehicle: saline) 104 % of control and 106 % of control; (dose: 6.25 mg/kg/injection, schedule: Q01DX009 (ip), vehicle: saline) 93 % of control and 104 % of control; (dose: 12.5 mg/kg/injection, schedule: Q01DX009 (ip), vehicle: saline) 100 % of control; under setting [9], 94 % of control and 110 % of control; under setting [10], 101 % of control and 107 % of control; under setting [11], 106 % of control. Besides, the T/C under setting [12] was 93 % of control and 96 % of control; the T/C under setting [13] was 113 % of control; the T/C under setting [15] is 104 % of control; the T/C under setting [16] was 114 % of control.

For `C[n+]1ccc2ccccc2c1`, the T/C is 100 % of control under setting [9]; 100 % of control under setting [10]; 104 % of control under setting [11]; 104 % of control under setting [12]; 100 % of control under setting [13].

As for `C[n+]1cc2c3ccccc3c(N)cc2c2ccccc21`, the T/C runs as follows: (dose: 3.12 mg/kg/injection, schedule: Q01DX009 (ip), vehicle: water) 157 % of control; under setting [1], 185 % of control; (dose: 6.25 mg/kg/injection, schedule: Q04DX003 (ip), vehicle: water) 102 % of control; (dose: 12.5 mg/kg/injection, schedule: Q04DX003 (ip), vehicle: water) 116 % of control; under setting [2], 91 % of control; (dose: 25.0 mg/kg/injection, schedule: Q04DX003 (ip), vehicle: water) 98 % of control. The T/C is 154 % of control (dose: 100.0 mg/kg/injection, schedule: Q04DX003 (ip), vehicle: water) and 203 % of control (dose: 150.0 mg/kg/injection, schedule: Q04DX003 (ip), vehicle: water).

For `O=C(O)C1(NO)CCCC1`, the T/C runs as follows: under setting [12], 95 % of control; under setting [14], 104 % of control.

For the compound `CCCCCCCCCCCCCCCCCCOc1ccccn1`, the T/C is 100 % of control (dose: 3.12 mg/kg/injection, schedule: Q01DX009 (ip), vehicle: Klucel (hydroxypropylcellulose) (HPC)); 104 % of control (dose: 6.25 mg/kg/injection, schedule: Q01DX009 (ip), vehicle: Klucel (hydroxypropylcellulose) (HPC)); 104 % of control (dose: 12.5 mg/kg/injection, schedule: Q01DX009 (ip), vehicle: Klucel (hydroxypropylcellulose) (HPC)); 95 % of control (dose: 100.0 mg/kg/injection, schedule: Q04DX003 (ip), vehicle: Klucel (hydroxypropylcellulose) (HPC)); 100 % of control (dose: 200.0 mg/kg/injection, schedule: Q04DX003 (ip), vehicle: Klucel (hydroxypropylcellulose) (HPC)); 89 % of control (dose: 400.0 mg/kg/injection, schedule: Q01DX009 (ip), vehicle: Klucel (hydroxypropylcellulose) (HPC)). In addition, the T/C (dose: 400.0 mg/kg/injection, schedule: Q04DX003 (ip), vehicle: Klucel (hydroxypropylcellulose) (HPC)) is 95 % of control.

Consider `CC(C)CN1CC(=O)N2CCCN2C(=O)C1`, for which the T/C is 94 % of control (dose: 50.0 mg/kg/injection, schedule: Q01DX005 (ip), vehicle: saline); 108 % of control (dose: 100.0 mg/kg/injection, schedule: Q01DX005 (ip), vehicle: saline); 103 % of control (dose: 200.0 mg/kg/injection, schedule: Q01DX005 (ip), vehicle: saline).

As to `O=C1CC(Cl)C(=O)N1c1ccccc1` (stereo not given), the T/C reads like this: (dose: 75.0 mg/kg/injection, schedule: Q04DX003 (ip), vehicle: saline with Tween-80) 108 % of control; (dose: 150.0 mg/kg/injection, schedule: Q04DX003 (ip), vehicle: saline with Tween-80) 104 % of control; (dose: 300.0 mg/kg/injection, schedule: Q04DX003 (ip), vehicle: saline with Tween-80) 104 % of control.

Turning to `CCCCCCCCSP(=S)(N1CC1)N1CC1`, the T/C runs as follows: under setting [3], 90 % of control; under setting [4], 88 % of control; under setting [5], 100 % of control; under setting [6], 94 % of control; under setting [7], 95 % of control; under setting [8], 88 % of control.

As for `c1ccc(CNc2ncnc3[nH]ncc23)cc1`, the T/C was 86 % of control and 115 % of control (dose: 8.0 mg/kg/injection, schedule: Q01DX010 (ip), vehicle: saline); 86 % of control and 100 % of control (dose: 16.0 mg/kg/injection, schedule: Q01DX010 (ip), vehicle: saline); 95 % of control and 100 % of control (dose: 32.0 mg/kg/injection, schedule: Q01DX010 (ip), vehicle: saline); 100 % of control (dose: 64.0 mg/kg/injection, schedule: Q01DX010 (ip), vehicle: saline).
